# Measurements as given in publication PMC5478869, “New Hydroxycinnamic Acid Esters as Novel 5-Lipoxygenase Inhibitors That Affect Leukotriene Biosynthesis” (Mediators of Inflammation, 2017).
# pIC50: −log10 of the molar value.
# Biological target: T1, 5-LO (Homo sapiens, UniProt P09917)
# T1 sequence (P09917 1-674): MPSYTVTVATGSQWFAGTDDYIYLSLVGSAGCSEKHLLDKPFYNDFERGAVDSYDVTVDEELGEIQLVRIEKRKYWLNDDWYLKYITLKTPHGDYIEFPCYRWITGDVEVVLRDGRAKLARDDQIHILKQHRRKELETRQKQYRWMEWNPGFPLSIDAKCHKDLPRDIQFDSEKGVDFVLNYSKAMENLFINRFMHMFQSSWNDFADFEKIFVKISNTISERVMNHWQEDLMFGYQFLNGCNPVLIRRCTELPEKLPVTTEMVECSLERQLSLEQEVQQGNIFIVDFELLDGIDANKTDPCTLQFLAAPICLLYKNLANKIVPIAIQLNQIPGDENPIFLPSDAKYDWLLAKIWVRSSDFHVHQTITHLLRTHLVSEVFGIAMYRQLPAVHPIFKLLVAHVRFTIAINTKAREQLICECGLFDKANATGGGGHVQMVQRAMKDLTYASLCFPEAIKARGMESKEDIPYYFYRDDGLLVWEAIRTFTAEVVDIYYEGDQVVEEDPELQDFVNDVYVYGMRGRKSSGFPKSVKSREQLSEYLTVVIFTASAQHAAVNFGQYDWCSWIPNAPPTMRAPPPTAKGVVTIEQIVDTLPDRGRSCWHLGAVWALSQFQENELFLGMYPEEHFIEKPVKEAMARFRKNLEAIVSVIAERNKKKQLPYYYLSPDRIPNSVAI
# Experiment: Biosynthesis of 5-LO products by thapsigargin-stimulated PMNL
# Assay type: cell-based
# Parameters: endogenous in cells; host or cells: human polymorphonuclear leukocytes (PMNL) isolated from whole blood
# Details: freshly isolated human PMNL, 5 min preincubation, 1 μM thapsigargin 15 min; 95% CI in brackets; read-out: IC50 (95% CI) for the inhibition of 5-LO product biosynthesis in human PMNL
# Procedure: Polymorphonuclear leukocytes (PMNL) were isolated as previously described. Briefly, whole blood was collected (with anticoagulant citrate dextrose (ACD)) and then centrifuged at 500 g for 10 min. Platelet-rich plasma (PRP) was set aside for platelet isolation (see below), and erythrocytes were removed by dextran sedimentation. After a centrifugation step at 900 g × 20 min at room temperature on a lymphocyte separation medium cushion (density, 1.077 g/ml) (Wisent), PMNL were obtained (>96%) followed by hypotonic lysis of the remaining erythrocytes. PMNL were counted and resuspended at 10^7 cells/ml in HBSS supplemented with 1.6 mM CaCl2. PRP was processed as previously described for platelet isolation. Briefly, PRP was centrifuged at 400 g for 2 min at room temperature to remove the remaining erythrocytes. The supernatant was then centrifuged at 1300g for 10 min to pellet platelets. Cells were resuspended in Tyrode Buffer pH 7.4 (134 mM NaCl, 2.9 mM KCl, 0.34 mM Na2HPO4, 12 mM NaHCO3, 20 mM HEPES, 1 mM MgCl2, 5 mM glucose, and 0.5 mg/ml BSA) at 3 × 10^8 cells/ml in the presence of 5 mM CaCl2.
# Suspended PMNL (10^7 cells/ml) were incubated at 37°C with adenosine deaminase (0.3 U/ml, Sigma-Aldrich) and test compounds at indicated concentrations 5 min before stimulation. To initiate stimulation, 1 μM of thapsigargin (Sigma-Aldrich) was added to cells which were then incubated for 15 min at 37°C [31]. Two volumes of MeOH:MeCN (1 : 1) containing the internal standard PGB2 (100 ng/ml) was then added, and samples were processed for RP-HPLC analysis as described above.
# Statistical analysis and graph design were performed with GraphPad Prism 5 software (GraphPad Software, San Diego, California). IC50 values were calculated from a sigmoidal concentration-response curve-fitting model and are expressed as means with 95% confidence intervals. All other data are expressed as mean ± SEM. One-way ANOVA with Dunnett's multiple comparison test (p < 0.05) were performed to determine significant difference from controls.
# Figure 2 Effect of the test compounds on the biosynthesis of 5-LO products in transfected HEK293 cells (a) and thapsigargin-stimulated PMNL (b). (a) HEK293 cells expressing both 5-LO and FLAP were incubated in presence of the indicated compounds (1 μM) or their diluent (control, 0.5% DMSO) for 5 min, then biosynthesis of 5-LO products was initiated with the addition of 10 μM calcium ionophore A23187 and 10 μM arachidonic acid for 15 min. After stimulation, reactions were stopped and samples were processed for analysis of 5-LO products by RP-HPLC. Total 5-LO products measured represent the sum of LTB4, its trans isomers, and 5-hydroxyeicosatetraenoic acid. (b) Freshly isolated human PMNL were incubated in presence of test compounds (or their diluent control, DMSO 0.5%) at the indicated concentrations for 5 min. Biosynthesis of the 5-LO products was initiated with the addition of 1 μM of thapsigargin, followed by a 15 min incubation period at 37°C. The stimulation was then stopped and samples were processed for RP-HPLC analysis and total 5-LO products quantification. Total 5-LO products measured represent the sum of LTB4, its trans isomers, 20-COOH- and 20-OH-LTB4 and 5-hydroxyeicosatetraenoic acid. Data are expressed as means ± SEM of at least 3 independent experiments. ^∗Different from control, as determined by one-way ANOVA with Dunnett's multiple comparison test (p < 0.05).
row,SMILES,pIC50
1,O=C(/C=C/c1ccc(O)c(O)c1)OCCCc1ccccc1 [Compound 13],6.31
2,Cc1ccc(CCOC(=O)/C=C/c2ccc(O)c(O)c2)cc1 [Compound 15],5.98
3,C=C(C)CCOC(=O)/C=C/c1ccc(O)c(O)c1 [Compound 9],6.06
4,COc1ccc(CCOC(=O)/C=C/c2ccc(O)c(O)c2)cc1 [Compound 16],5.89
5,O=C(/C=C/c1ccc(O)c(O)c1)OCCc1ccc(F)cc1 [Compound 14],6.00
6,O=C(/C=C/c1ccc(O)c(O)c1)OCC(c1ccccc1)c1ccccc1 [Compound 19],6.28
7,"O=C(/C=C/c1ccc(O)c(O)c1)OCCc1ccccc1 [CAPE (2), Caffeic acid phenethyl ester, reference compound]",6.10
